Test results as given in ChEMBL document CHEMBL1201862, “PubChem BioAssay data set” (2004).
Active and inactive are the calls of the source.

Experiments:
[1] = target: Beta Lactamase (Pseudomonas aeruginosa, UniProt Q932Y6);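 note: confirmatory high-throughput screen measuring VIM-2 metallo-beta-lactamase inhibition by epi-absorbance in dose response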
[2] = target: T1, Ubiquitin-conjugating enzyme E2 N (Homo sapiens, UniProt P61088); assay type: functional
T1 sequence (P61088 whole entry): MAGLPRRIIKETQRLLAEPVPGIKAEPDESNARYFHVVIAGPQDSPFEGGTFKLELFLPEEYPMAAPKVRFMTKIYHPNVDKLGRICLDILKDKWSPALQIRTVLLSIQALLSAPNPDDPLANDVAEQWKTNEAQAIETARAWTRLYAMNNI

[3] = target: T2, Bcl-2-related protein A1 (Mus musculus, UniProt Q07440); assay type: functional;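 note: confirmatory dose–response counterscreen on Bfl-1, used to check hits from a UBC13 polyubiquitin inhibitor campaign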
T2 sequence (Q07440 whole entry): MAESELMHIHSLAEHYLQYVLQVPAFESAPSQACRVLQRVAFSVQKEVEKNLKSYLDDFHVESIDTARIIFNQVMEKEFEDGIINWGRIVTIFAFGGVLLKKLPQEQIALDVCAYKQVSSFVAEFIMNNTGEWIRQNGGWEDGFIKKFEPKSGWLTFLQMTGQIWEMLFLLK

[4] = target: T3, Apoptotic protease-activating factor 1 (Homo sapiens, UniProt O14727); assay type: functional
T3 sequence (O14727 whole entry): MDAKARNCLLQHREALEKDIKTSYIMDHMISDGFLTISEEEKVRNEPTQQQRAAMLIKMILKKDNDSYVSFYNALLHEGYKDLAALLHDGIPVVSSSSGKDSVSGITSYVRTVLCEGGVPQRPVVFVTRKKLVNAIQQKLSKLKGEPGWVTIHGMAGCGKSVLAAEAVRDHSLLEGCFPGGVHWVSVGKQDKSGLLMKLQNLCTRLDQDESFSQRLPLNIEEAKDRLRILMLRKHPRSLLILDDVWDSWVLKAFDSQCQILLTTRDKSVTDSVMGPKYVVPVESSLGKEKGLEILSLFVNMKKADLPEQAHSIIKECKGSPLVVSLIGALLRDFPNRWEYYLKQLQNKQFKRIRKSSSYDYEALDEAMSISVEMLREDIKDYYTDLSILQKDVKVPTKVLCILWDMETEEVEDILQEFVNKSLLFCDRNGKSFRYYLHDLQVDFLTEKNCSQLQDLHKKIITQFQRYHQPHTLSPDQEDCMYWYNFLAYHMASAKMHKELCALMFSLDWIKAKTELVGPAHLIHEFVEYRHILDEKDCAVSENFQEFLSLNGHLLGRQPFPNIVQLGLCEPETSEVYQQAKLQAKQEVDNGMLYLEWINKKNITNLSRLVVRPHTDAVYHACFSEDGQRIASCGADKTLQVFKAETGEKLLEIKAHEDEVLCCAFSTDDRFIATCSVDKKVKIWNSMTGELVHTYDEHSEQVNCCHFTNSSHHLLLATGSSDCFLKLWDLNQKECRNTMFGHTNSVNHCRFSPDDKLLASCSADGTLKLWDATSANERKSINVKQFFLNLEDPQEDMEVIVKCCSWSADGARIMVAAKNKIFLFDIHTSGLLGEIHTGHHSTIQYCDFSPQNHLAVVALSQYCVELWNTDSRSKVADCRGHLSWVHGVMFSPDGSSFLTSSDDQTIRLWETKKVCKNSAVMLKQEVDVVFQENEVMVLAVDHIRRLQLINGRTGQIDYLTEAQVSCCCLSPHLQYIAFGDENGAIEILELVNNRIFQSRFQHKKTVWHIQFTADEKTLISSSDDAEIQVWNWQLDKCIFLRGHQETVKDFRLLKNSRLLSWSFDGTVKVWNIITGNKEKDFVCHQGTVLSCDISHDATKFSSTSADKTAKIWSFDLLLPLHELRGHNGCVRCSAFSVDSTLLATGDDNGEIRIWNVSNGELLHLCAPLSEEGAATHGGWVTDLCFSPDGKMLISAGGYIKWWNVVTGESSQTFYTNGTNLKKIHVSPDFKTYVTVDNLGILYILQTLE

[5] = target: T1, Ubiquitin-conjugating enzyme E2 N; assay type: functional; remark: listed apart in the source
[6] = target: Beta-lactamase (Pseudomonas aeruginosa, UniProt Q79MP6);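 note: biochemical dose-response test of metallo-beta-lactamase enzyme inhibition, read out by epi-absorbance; purified recombinant IMP-1 metallo-beta-lactamase with nitrocefin as substrate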
[7] = target: T3, Apoptotic protease-activating factor 1; assay: SAR analysis of small molecule inhibitors of Apaf-1 in a Fluorescent assay.; assay type: functional; conditions: read-out: IC50_Mean
[8] = target: Beta-lactamase (Salmonella choleraesuis (strain SC-B67), UniProt Q5J463)
[9] = target: E3 ubiquitin-protein ligase XIAP (Homo sapiens, UniProt P98170); assay: Counter Screen using XIAP-Bir3 for Chemical Antagonists of Bir1/2 domains of IAP-family anti-apoptotic proteins. [Related pubchem assays (depositor defined):AID1018, AID1449, AID1514, AID1638, AID1749, AID1750, AID488957, AID488963]
[10] = SAR analysis of small molecule activators of Apaf-1 using a LZ-Caspase-9/Caspase-3 Fluorescent Selectivity assay - Set 2.; assay type: functional; conditions: read-out: EC50_Mean
[11] = target: T3, Apoptotic protease-activating factor 1; assay: SAR analysis of small molecule Activators of Apaf-1 in a Fluorescent assay - set 2.; assay type: functional; conditions: read-out: EC50_Mean
[12] = target: Glycogen synthase kinase-3 alpha (Homo sapiens, UniProt P49840); assay: human GSK3 alpha kinase inhibition, dose response, selectivity assay for GSK3beta inhibitor project, biochemical, microfluidics, dry powder samples, set 2 (AID 623978); assay type: functional
[13] = target: Glycogen synthase kinase-3 beta (Homo sapiens, UniProt P49841); assay: GSK3beta kinase inhibitors, dose response, biochemical, microfluidics, dry powder samples, set 2 (AID 623989); assay type: functional
[14] = target: T4, Melanin-concentrating hormone receptor 1 (Homo sapiens, UniProt Q99705); assay: Late-stage fluorescence-based counterscreen for antagonists of the G-protein coupled receptor 7 (GPR7): cell-based dose response assay to identify antagonists of the melanin-concentrating hormone receptor 1 (MCHR1) Set 5.; assay type: functional
[15] = target: T5, Neuropeptides B/W receptor type 1 (Homo sapiens, UniProt P48145); assay: GPR7 antagonist potency, late-stage follow-up, cell-based, fluorescence, dose response, set 5 (AID 588566); assay type: functional
[16] = Vero cell cytotoxicity, dose response, cytotoxicity control for M. tuberculosis growth inhibitor project, Vero cells, purified and synthesized compounds, set 5 (AID 504909); assay type: functional; conditions: Mycobacterium tuberculosis
[17] = Vero cell cytotoxicity, dose response, cytotoxicity control for M. tuberculosis growth inhibitor project, Vero cells, purified and synthesized compounds, set 4 (AID 504854); assay type: functional; conditions: Mycobacterium tuberculosis
[18] = target: T4, Melanin-concentrating hormone receptor 1; assay: Late-stage fluorescence-based counterscreen for antagonists of the G-protein coupled receptor 7 (GPR7): cell-based dose response assay to identify antagonists of the melanin-concentrating hormone receptor 1 (MCHR1) Set 6.; assay type: functional
[19] = target: T5, Neuropeptides B/W receptor type 1; assay: GPR7 antagonist potency, late-stage follow-up, cell-based, fluorescence, dose response, set 6 (AID 588583); assay type: functional
[20] = target: Cyclin-dependent kinase 19 (Homo sapiens, UniProt Q9BWU1); assay: Navigating the Kinome. Panel member name: CDC2L6; assay type: functional
[21] = target: High affinity nerve growth factor receptor (Homo sapiens, UniProt P04629); assay type: functional;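 note: NTRK1 tested as one member of a kinome-wide profiling panel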
High affinity nerve growth factor receptor, sequence (P04629 whole entry): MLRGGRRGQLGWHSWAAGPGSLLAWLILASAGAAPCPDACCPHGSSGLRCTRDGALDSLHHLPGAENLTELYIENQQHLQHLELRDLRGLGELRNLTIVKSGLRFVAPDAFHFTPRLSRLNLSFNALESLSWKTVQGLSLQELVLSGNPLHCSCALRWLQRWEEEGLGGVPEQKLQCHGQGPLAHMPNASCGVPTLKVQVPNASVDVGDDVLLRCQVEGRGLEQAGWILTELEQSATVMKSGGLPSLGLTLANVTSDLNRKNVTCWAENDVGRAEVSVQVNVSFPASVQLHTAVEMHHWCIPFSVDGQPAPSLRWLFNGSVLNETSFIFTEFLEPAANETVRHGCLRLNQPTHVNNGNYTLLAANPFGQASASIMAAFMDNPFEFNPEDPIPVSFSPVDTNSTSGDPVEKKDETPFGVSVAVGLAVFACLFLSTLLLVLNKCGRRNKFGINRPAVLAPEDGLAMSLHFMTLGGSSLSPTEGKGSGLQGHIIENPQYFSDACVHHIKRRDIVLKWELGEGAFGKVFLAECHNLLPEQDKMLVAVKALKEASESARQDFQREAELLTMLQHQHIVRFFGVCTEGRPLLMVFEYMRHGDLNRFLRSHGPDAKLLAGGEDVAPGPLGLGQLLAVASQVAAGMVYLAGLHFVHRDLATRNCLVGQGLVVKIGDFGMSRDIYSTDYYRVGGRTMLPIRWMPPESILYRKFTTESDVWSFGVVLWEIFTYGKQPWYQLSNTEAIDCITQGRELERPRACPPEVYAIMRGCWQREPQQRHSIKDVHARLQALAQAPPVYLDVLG

T5 sequence (P48145 whole entry): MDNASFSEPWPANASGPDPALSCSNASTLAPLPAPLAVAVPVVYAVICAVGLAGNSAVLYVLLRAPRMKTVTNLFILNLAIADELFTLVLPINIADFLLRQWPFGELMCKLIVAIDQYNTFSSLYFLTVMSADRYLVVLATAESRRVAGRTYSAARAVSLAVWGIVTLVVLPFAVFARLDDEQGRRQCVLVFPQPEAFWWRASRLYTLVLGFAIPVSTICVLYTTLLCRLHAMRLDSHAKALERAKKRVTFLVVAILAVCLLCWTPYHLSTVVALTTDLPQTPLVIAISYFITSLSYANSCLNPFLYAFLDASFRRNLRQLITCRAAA
T4 sequence (Q99705 whole entry): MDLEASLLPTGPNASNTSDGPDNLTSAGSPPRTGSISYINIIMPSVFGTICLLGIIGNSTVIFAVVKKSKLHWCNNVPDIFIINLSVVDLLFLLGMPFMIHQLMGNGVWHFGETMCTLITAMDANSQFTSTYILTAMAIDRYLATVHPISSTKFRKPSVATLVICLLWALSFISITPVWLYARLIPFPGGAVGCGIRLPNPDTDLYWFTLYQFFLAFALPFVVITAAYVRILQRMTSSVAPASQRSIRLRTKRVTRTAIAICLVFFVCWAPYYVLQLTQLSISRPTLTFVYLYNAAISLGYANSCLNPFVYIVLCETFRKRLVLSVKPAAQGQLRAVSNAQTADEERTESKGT
Beta-lactamase (Salmonella choleraesuis (strain SC-B67), UniProt Q5J463), sequence (Q5J463 whole entry): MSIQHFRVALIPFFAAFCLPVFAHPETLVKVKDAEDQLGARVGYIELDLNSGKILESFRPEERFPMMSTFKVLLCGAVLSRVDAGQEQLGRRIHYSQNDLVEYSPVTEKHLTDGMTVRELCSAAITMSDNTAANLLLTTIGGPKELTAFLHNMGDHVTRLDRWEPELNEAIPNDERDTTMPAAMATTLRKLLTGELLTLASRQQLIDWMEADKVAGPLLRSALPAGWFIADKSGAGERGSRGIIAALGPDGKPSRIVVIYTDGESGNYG
Beta-lactamase (Pseudomonas aeruginosa, UniProt Q79MP6), sequence (Q79MP6 whole entry): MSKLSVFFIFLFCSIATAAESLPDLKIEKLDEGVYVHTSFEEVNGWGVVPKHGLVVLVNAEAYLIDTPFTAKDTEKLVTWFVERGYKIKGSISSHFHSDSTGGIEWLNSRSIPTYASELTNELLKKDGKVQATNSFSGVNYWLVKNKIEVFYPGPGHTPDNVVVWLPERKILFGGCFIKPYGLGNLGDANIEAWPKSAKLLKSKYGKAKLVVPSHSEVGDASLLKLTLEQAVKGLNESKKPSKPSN
Glycogen synthase kinase-3 alpha, sequence (P49840 whole entry): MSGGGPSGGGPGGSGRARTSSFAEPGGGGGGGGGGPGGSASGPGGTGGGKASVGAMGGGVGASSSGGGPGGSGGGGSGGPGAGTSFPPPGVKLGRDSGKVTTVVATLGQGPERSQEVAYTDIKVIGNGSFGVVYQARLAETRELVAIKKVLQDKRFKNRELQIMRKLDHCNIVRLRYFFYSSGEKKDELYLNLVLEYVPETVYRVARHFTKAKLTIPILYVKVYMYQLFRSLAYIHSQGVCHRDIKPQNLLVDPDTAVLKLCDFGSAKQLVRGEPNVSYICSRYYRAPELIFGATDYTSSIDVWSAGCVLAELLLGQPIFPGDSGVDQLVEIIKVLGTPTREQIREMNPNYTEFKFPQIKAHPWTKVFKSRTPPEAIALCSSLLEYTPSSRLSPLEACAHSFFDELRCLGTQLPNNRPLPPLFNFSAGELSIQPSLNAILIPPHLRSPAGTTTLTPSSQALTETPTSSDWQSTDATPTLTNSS
Glycogen synthase kinase-3 beta, sequence (P49841 whole entry): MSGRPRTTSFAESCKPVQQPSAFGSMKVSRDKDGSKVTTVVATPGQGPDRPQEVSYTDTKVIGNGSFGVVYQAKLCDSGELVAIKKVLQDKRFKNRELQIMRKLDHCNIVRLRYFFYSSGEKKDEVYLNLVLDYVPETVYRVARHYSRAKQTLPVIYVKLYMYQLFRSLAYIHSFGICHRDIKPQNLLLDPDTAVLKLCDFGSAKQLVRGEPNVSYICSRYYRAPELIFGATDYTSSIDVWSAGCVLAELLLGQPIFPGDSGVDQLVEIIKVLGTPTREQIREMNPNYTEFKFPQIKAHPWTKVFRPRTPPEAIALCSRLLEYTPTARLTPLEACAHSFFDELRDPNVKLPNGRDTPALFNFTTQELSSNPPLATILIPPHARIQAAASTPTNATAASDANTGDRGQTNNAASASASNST
Cyclin-dependent kinase 19, sequence (Q9BWU1 whole entry): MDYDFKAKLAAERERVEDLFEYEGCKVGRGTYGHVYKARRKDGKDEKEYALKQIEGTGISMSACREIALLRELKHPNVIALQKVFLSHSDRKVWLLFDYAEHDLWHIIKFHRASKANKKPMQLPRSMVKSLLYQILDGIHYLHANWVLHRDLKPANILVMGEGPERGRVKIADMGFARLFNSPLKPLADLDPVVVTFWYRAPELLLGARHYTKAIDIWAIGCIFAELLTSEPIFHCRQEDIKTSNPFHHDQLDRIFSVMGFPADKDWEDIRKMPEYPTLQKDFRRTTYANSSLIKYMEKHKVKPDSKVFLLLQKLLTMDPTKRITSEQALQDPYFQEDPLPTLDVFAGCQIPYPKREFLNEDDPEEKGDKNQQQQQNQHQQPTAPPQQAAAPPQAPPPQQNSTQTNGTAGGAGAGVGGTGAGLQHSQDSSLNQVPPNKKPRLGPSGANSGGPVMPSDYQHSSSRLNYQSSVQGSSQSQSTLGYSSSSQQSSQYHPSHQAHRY
Beta Lactamase, sequence (Q932Y6 whole entry): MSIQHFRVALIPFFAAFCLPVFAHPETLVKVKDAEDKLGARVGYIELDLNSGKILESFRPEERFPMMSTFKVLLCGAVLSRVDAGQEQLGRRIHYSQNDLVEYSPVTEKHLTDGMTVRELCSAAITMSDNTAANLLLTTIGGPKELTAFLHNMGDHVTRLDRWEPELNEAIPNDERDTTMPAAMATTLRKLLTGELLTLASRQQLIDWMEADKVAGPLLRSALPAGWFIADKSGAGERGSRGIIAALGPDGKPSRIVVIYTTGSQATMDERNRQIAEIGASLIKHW
E3 ubiquitin-protein ligase XIAP, sequence (P98170 whole entry): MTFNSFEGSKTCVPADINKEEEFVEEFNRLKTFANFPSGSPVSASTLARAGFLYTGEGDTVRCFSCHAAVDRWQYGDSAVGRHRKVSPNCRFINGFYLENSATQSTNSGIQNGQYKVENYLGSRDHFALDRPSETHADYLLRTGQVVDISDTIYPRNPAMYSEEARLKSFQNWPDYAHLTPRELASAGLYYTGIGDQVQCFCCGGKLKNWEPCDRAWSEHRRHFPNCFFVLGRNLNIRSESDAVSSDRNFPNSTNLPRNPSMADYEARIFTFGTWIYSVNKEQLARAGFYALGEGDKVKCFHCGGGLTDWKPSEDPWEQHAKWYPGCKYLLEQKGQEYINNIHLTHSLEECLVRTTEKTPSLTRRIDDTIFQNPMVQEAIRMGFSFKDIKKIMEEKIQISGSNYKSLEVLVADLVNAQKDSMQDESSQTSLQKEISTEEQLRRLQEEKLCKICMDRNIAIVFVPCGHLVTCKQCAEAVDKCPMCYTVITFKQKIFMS

CCN(CC)CCOC(=O)c1ccc(N/C=C(/C#N)c2nc(-c3cc4ccccc4oc3=O)cs2)cc1
IC50 [1]: > 59.6 µM (inactive)
IC50 [2]: 3.5 µM (active)
IC50 [3]: 0.55 µM (active)
IC50 [4]: 4.12 µM (active)
IC50 [5]: 3.74 µM (active)
IC50 [6]: > 59.6 µM (inactive)
IC50 [7]: 3.09 µM (active)
IC50 [8]: > 59.6 µM (inactive)
IC50 [9]: > 20 µM (inactive)

O=C(O)C1CC(c2ccccc2Cl)=NO1 (stereo unspecified)
EC50 [10]: > 100 µM (inactive)
EC50 [11]: > 100 µM (inactive)

CCOc1ccccc1/C=N/NC(=O)c1nnn(-c2nonc2N)c1CN1CCCCCC1
AC50 [12]: 0.0219 µM (active)
AC50 [13]: < 0.016 µM (active)

COc1ccc(Oc2c(Cl)c(C(=O)O)nn(-c3ccc(C(C)C)cc3)c2=O)cc1
IC50 [14]: > 20 µM (inactive)
IC50 [15]: > 20 µM (inactive)

Cc1ccc(NC(=O)CSc2nc3ccccc3c(=O)[nH]2)cc1Cl
CC50 [16]: > 100 µM (active)
CC50 [17]: > 100 µM (active)

N#CC(c1ccc(F)cc1Cl)c1c(Cl)cnn(Cc2cccc3ccccc23)c1=O (stereo unspecified)
IC50 [18]: 1.71 µM (active)
IC50 [19]: 1.71 µM (active)

O=C(Nc1cccc(C(F)(F)F)c1)Nc1cc(Cl)ccc1O
Ki [20]: 20 µM (active)
Ki [21]: 10 µM (active)
